# Biological target: T1, IL-17A/A (Homo sapiens, UniProt Q16552)
# T1 construct: purchased Genscript Z03228
# T1 sequence (Q16552 24-155): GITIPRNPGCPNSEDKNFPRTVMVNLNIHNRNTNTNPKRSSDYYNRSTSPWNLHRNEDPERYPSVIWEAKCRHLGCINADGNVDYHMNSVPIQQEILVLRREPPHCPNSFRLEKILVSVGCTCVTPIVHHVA
# Test: HEK-Blue IL-17A/A inhibition assay (SEAP reporter)
# Format: cell-based
# Conditions: HEK-Blue cells (HEK 293 expressing IL-17RA, IL-17RC, Act1); IL-17A/A stimulation; 20 hours; SEAP read at A630; 4-parameter fit
# Protocol: The HEK-Blue #NC108637 […]. Cells were grown and prepared for assays according to the manufacturer's instructions. This cell line consists of HEK 293 cells that were designed to expressed IL-17R^A, IL-17RC, and the ActI adapter molecule, the combination of which. when stimulated by IL-17A/A activates a NFtcB promoter and drives expression of a recombinant Secreted Alkaline Phosphatase (SEAP) geneprotein. Media from the cells is then added to a development reagent (Quanti-Blue Substrate, Fisher #NC971 1613), and read at A630.
# Compounds were titrated in DMSO. with a top final compound concentration of 10 uM, 1 uM, or 0.3 uM, and added to the cells immediately before adding IL-17A/A (Genscript #Z03228). The cells, compound, and IL-17A/A were then incubated for 20 hours before media was removed for SEAP analysis. The resulting inhibition curve was then analyzed using Graphpad Prism 7.0, and IC50 values were determined using a 4-parameter nonlinear fit. DMSO was added to a universal final concentration of 0.1% to optimze background.
row,IC50 [µM],SMILES
1,< 0.1,"C=Cc1cc(NC(=O)[C@@H](NC(=O)c2ccnn2C(C)C)C(C2CC2)C2CC2)c(F)cc1C(C)C(=O)NCC(F)(F)F (mixture of isomers) [Compound 110, N-((2S)-1,1-dicyclopropyl-3-((2-fluoro-4-(1-oxo-1-((2,2,2-trifluoroethyl)amino)propan-2-yl)-5-vinylphenyl)amino)-3-oxopropan-2-yl)-1-isopropyl-1H-pyrazole-5-carboxamide]"
2,0.1 to 1,"CC(C(=O)NCC(F)(F)F)c1cc(F)c(NC(=O)[C@@H](NC(=O)c2ccnn2C(C)C)C(C2CC2)C2CC2)cc1Br (mixture of isomers) [Compound 113, N-((2S)-1-((5-bromo-2-fluoro-4-(1-oxo-1-((2,2,2-trifluoroethyl)amino)propan-2-yl)phenyl)amino)-3,3-dicyclopropyl-1-oxopropan-2-yl)-1-isopropyl-1H-pyrazole-5-carboxamide]"
3,0.1 to 1,"CCn1nccc1C(=O)N[C@H](C(=O)Nc1ccc([C@@H](C)C(=O)N(C)CC(F)(F)F)cc1F)C1CCCCCC1 (single isomer, unassigned) [Compound 3]"
4,< 0.1,"CCn1nccc1C(=O)N[C@H](C(=O)Nc1ccc([C@H](C)C(=O)N(C)CC(F)(F)F)cc1F)C1CCCCCC1 (single isomer, unassigned) [Compound 4]"
5,< 0.1,"CC(C)n1nccc1C(=O)N[C@H](C(=O)Nc1ccc([C@H](C)C(=O)N2CCOCC2C(F)(F)F)cc1F)C(C1CC1)C1CC1 (single isomer, unassigned) [Compound 18]"
6,0.1 to 1,"CC(C)n1nccc1C(=O)N[C@H](C(=O)Nc1ccc([C@H](C)C(=O)N2CCOCC2C(F)(F)F)cc1F)C(C1CC1)C1CC1 (single isomer, unassigned) [Compound 19]"
7,0.1 to 1,"CC(C)n1nccc1C(=O)N[C@H](C(=O)Nc1ccc([C@H](C)C(=O)N2CCCCC2C(F)(F)F)cc1F)C(C1CC1)C1CC1 (single isomer, unassigned) [Compound 20]"
8,0.1 to 1,"CC(C)n1nccc1C(=O)N[C@H](C(=O)Nc1ccc([C@H](C)C(=O)N2CCCCC2C(F)(F)F)cc1F)C(C1CC1)C1CC1 (single isomer, unassigned) [Compound 21]"
9,0.1 to 1,"CC(C)n1nccc1C(=O)N[C@H](C(=O)Nc1ccc([C@H](C)C(=O)NC(CO)C(F)(F)F)cc1F)C(C1CC1)C1CC1 (single isomer, unassigned) [Compound 28]"
10,< 0.1,"CC(C)n1nccc1C(=O)N[C@H](C(=O)Nc1ccc([C@H](C)C(=O)NC(CO)C(F)(F)F)cc1F)C(C1CC1)C1CC1 (single isomer, unassigned) [Compound 29]"
11,0.1 to 1,"CC(C)n1nccc1C(=O)N[C@H](C(=O)Nc1ccc([C@H](C)C(=O)N2CCOC2C(F)(F)F)cc1F)C(C1CC1)C1CC1 (single isomer, unassigned) [Compound 48]"
12,0.1 to 1,"CC(C)n1nccc1C(=O)N[C@H](C(=O)Nc1ccc([C@H](C)C(=O)N2CCOC2C(F)(F)F)cc1F)C(C1CC1)C1CC1 (single isomer, unassigned) [Compound 49]"
13,> 1,"CCN(CC(F)(F)F)C(=O)C(C)c1ccc(NC(=O)[C@@H](NC(=O)c2ccnn2CC)C2CCCCCC2)c(F)c1 (single isomer, unassigned) [Compound 69]"
14,0.1 to 1,"CCN(CC(F)(F)F)C(=O)C(C)c1ccc(NC(=O)[C@@H](NC(=O)c2ccnn2CC)C2CCCCCC2)c(F)c1 (single isomer, unassigned) [Compound 70]"
15,< 0.1,"CCn1nccc1C(=O)N[C@H](C(=O)Nc1cc(C)c(C(C)C(=O)N(C)CC(F)(F)F)cc1F)C(C1CC1)C1CC1 (single isomer, unassigned) [Compound 76]"
16,0.1 to 1,"CCn1nccc1C(=O)N[C@H](C(=O)Nc1cc(C)c(C(C)C(=O)N(C)CC(F)(F)F)cc1F)C(C1CC1)C1CC1 (single isomer, unassigned) [Compound 77]"
17,0.1 to 1,"CCC(C1CCC1)[C@H](NC(=O)c1ccnn1CC)C(=O)Nc1ccc([C@H](C)C(=O)NCC(F)(F)F)cc1F (single isomer, unassigned) [Compound 86]"
18,0.1 to 1,"CCC(C1CCC1)[C@H](NC(=O)c1ccnn1CC)C(=O)Nc1ccc([C@H](C)C(=O)NCC(F)(F)F)cc1F (single isomer, unassigned) [Compound 87]"
19,0.1 to 1,"CC(CN1CCOCC1)n1nccc1C(=O)N[C@H](C(=O)Nc1ccc([C@H](C)C(=O)NCC(F)(F)F)cc1F)C(C1CC1)C1CC1 (single isomer, unassigned) [Compound 92]"
20,0.1 to 1,"CC(CN1CCOCC1)n1nccc1C(=O)N[C@H](C(=O)Nc1ccc([C@H](C)C(=O)NCC(F)(F)F)cc1F)C(C1CC1)C1CC1 (single isomer, unassigned) [Compound 93]"

row,IC50 [µM],SMILES
1,> 1,"C[C@H](C(=O)NCC(F)(F)F)c1ccc(NC(=O)[C@@H](NC(=O)c2ccnn2C2CCCNC2)C(C2CC2)C2CC2)c(F)c1 (single isomer, unassigned) [Compound 96]"
2,> 1,"C[C@H](C(=O)NCC(F)(F)F)c1ccc(NC(=O)[C@@H](NC(=O)c2ccnn2C2CCCNC2)C(C2CC2)C2CC2)c(F)c1 (single isomer, unassigned) [Compound 97]"
3,< 0.1,"Cc1cc(NC(=O)[C@@H](NC(=O)c2ccnn2C(C)C)C(C2CC2)C2CC2)c(F)cc1[C@H](C)C(=O)NCC(F)(F)F (single isomer, unassigned) [Compound 98]"
4,> 1,"Cc1cc(NC(=O)[C@@H](NC(=O)c2ccnn2C(C)C)C(C2CC2)C2CC2)c(F)cc1[C@@H](C)C(=O)NCC(F)(F)F (single isomer, unassigned) [Compound 99]"
5,> 1,"CCn1nccc1C(=O)N[C@H](C(=O)Nc1ccc(C(COC)C(=O)N(C)CC(F)(F)F)cc1F)C1CCCCCC1 (single isomer, unassigned) [Compound 102, N—((I S)-1-cycloheptyl-2-((2-fluoro-4-(3-methoxy-1-(methyl(2,2,2-trifluoroethyl)amino)-1-oxopropan-2-yl)phenyl)amino)-2-oxoethyl)-1-ethyl-1H-pyrazole-5-carboxamide]"
6,< 0.1,"CCn1nccc1C(=O)N[C@H](C(=O)Nc1ccc(C(COC)C(=O)N(C)CC(F)(F)F)cc1F)C1CCCCCC1 (single isomer, unassigned) [Compound 103]"
7,> 1,"COCC(C(=O)NCC(F)(F)F)c1ccc(NC(=O)[C@@H](NC(=O)c2ccnn2C(C)C)C(C2CC2)C2CC2)c(F)c1 (single isomer, unassigned) [Compound 104]"
8,< 0.1,"COCC(C(=O)NCC(F)(F)F)c1ccc(NC(=O)[C@@H](NC(=O)c2ccnn2C(C)C)C(C2CC2)C2CC2)c(F)c1 (single isomer, unassigned) [Compound 105]"
9,0.1 to 1,"CC(C(=O)NCC(F)(F)F)c1cc(F)c(NC(=O)[C@@H](NC(=O)c2ccnn2C(C)C)C(C2CC2)C2CC2)cc1Cl (single isomer, unassigned) [Compound 108]"
10,0.1 to 1,"CC(C(=O)NCC(F)(F)F)c1cc(F)c(NC(=O)[C@@H](NC(=O)c2ccnn2C(C)C)C(C2CC2)C2CC2)cc1Cl (single isomer, unassigned) [Compound 109]"
11,0.1 to 1,"CC(C(=O)NCC(F)(F)F)c1cc(F)c(NC(=O)[C@@H](NC(=O)c2ccnn2C(C)C)C(C2CC2)C2CC2)cc1C#N (single isomer, unassigned) [Compound 115]"
12,> 1,"CC(C(=O)NCC(F)(F)F)c1cc(F)c(NC(=O)[C@@H](NC(=O)c2ccnn2C(C)C)C(C2CC2)C2CC2)cc1C(N)=O (single isomer, unassigned) [Compound 116]"
13,0.1 to 1,"CC(C(=O)NCC(F)(F)F)c1cc(F)c(NC(=O)[C@@H](NC(=O)c2ccnn2C(C)C)C(C2CC2)C2CC2)cc1C(N)=O (single isomer, unassigned) [Compound 117]"
14,> 1,"CC(C(=O)NCC(F)(F)F)c1cc(F)c(NC(=O)[C@@H](NC(=O)c2ccnn2C(C)C)C(C2CC2)C2CC2)cc1C#N (single isomer, unassigned) [Compound 118]"
15,< 0.1,"CC(C(=O)NCC(F)(F)F)c1cc(F)c(NC(=O)[C@@H](NC(=O)c2ccnn2C(C)C)C(C2CC2)C2CC2)cc1C(F)(F)F (single isomer, unassigned) [Compound 120]"
16,> 1,"CC(C(=O)NCC(F)(F)F)c1cc(F)c(NC(=O)[C@@H](NC(=O)c2ccnn2C(C)C)C(C2CC2)C2CC2)cc1C(F)(F)F (single isomer, unassigned) [Compound 121]"
17,> 1,"COc1cc(NC(=O)[C@@H](NC(=O)c2ccnn2C(C)C)C(C2CC2)C2CC2)c(F)cc1C(C)C(=O)NCC(F)(F)F (single isomer, unassigned) [Compound 122]"
18,< 0.1,"COc1cc(NC(=O)[C@@H](NC(=O)c2ccnn2C(C)C)C(C2CC2)C2CC2)c(F)cc1C(C)C(=O)NCC(F)(F)F (single isomer, unassigned) [Compound 123]"
19,< 0.1,"COCc1cc(NC(=O)[C@@H](NC(=O)c2ccnn2C(C)C)C(C2CC2)C2CC2)c(F)cc1C(C)C(=O)NCC(F)(F)F (single isomer, unassigned) [Compound 124]"
20,> 1,"COCc1cc(NC(=O)[C@@H](NC(=O)c2ccnn2C(C)C)C(C2CC2)C2CC2)c(F)cc1C(C)C(=O)NCC(F)(F)F (single isomer, unassigned) [Compound 125]"

# From patent US20240376056A1, “PHENYL ACETAMIDE BASED IL-17A MODULATORS AND USES THEREOF” (DiCE Alpha, Inc., priority 2021, published 2024)
